Tests used:
Assay type in all cases: in vivo
Zymoseptoria tritici = assay: Leaf blotch of wheat (SEPTTR) disease control on wheat seedlings; settings: for SEPTTR 1DP, LV activity at 125.1 g/H (% Control rating) / SEPTTR 3DC, LV activity at 125.1 g/H (% Control rating): low volume application
Puccinia triticina = assay: Wheat brown rust (PUCCRT) disease control on wheat seedlings; parameters: key to PUCCRT 3DC, HV activity at 100 ppm (% control rating) / PUCCRT disease control, 3DC / PUCCRT 1DP disease control rating, HV activity / PUCCRT 3DC disease control rating, HV activity / PUCCRT 3DC, LV activity at 125.1 g/H (% Control rating) / PUCCRT 1DP, LV activity at 125.1 g/H (% Control rating) / PUCCRT 3DC disease control rating, LV activity at 125.1 g/H / PUCCRT 1DP disease control rating, LV activity at 125.1 g/H / PUCCRT 3DC disease control rating, HV activity at 100 ppm / PUCCRT 1DP disease control rating, HV activity at 100 ppm / HV activity at 100 ppm PUCCRT 3DC (disease control rating) / LV activity at 125.1 g/H PUCCRT 1DP (disease control rating) / LV activity at 125.1 g/H PUCCRT 3DC (disease control rating): A: > 80; B: ≤ 80; C: Not Tested; D: No Activity Observed in the Reported Assay; settings: for PUCCRT 1DP, LV activity at 125.1 g/H (% Control rating) / PUCCRT 3DC, LV activity at 125.1 g/H (% Control rating): low volume application
Alternaria solani = assay: Tomato early blight (ALTESO) disease control; parameters: key: A: > 80; B: ≤ 80; C: Not Tested; D: No Activity Observed in the Reported Assay; settings: 100 ppm, 1 Day Protectant
Protocol: All fungicides were evaluated using the aforementioned method for their activity vs. all target diseases, unless stated otherwise. Wheat leaf blotch and brown rust activity were also evaluated using track spray applications, in which case the fungicides were formulated as EC formulations, containing 0.1% Trycol 5941 in the spray solutions. Wheat plants (variety Yuma) were grown from seed in a greenhouse in 50% mineral soil/50% soil-less Metro mix until the first leaf was fully emerged, with 7-10 seedlings per pot. These plants were inoculated with an aqueous spore suspension of Zymoseptoria tritici either prior to or after fungicide treatments. After inoculation the plants were kept in 100% relative humidity (one day in a dark dew chamber followed by two to three days in a lighted dew chamber at 20° C.) to permit spores to germinate and infect the leaf. The plants were then transferred to a greenhouse set at 20° C. for disease to develop. When disease symptoms were fully expressed on the 1st leaves of untreated plants, infection levels were assessed on a scale of 0 to 100 percent disease severity. Percent disease control was calculated using the ratio of disease severity on treated plants relative to untreated plants. Example J: Evaluation of Fungicidal Activity: Tomato Early Blight (Alternaria solani; Bayer Code […]) Tomato plants (variety Outdoor Girl) were propagated in soil-less Metro mix, with each pot having one plant, and used when 12 to 14 days old. Test plants were inoculated with an aqueous spore suspension of Alternaria solani 24 hr after fungicide treatments. After inoculation the plants were kept in a dew room at 22° C. with 100% relative humidity for 48 h to permit spores to germinate and infect the leaf. The plants were then transferred to a growth room at 22° C. for disease to develop. Fungicide formulation, application and disease assessment on the sprayed leaves followed the procedures as described in the Example A.

Row | Compound | SEPTTR 1DP disease control rating, HV activity (Zymoseptoria tritici; HV application at 100 ppm, 1 Day Protectant, wheat leaf blotch) | SEPTTR 3DC disease control rating, HV activity (Zymoseptoria tritici; HV application at 100 ppm, 3 Day Curative, wheat leaf blotch) | SEPTTR 1DP disease control rating, LV activity (Zymoseptoria tritici; Low volume application at 125.1 g/H, 1 Day Protectant, wheat leaf blotch) | SEPTTR 3DC disease control rating, LV activity (Zymoseptoria tritici; Low volume application at 125.1 g/H, 3 Day Curative, wheat leaf blotch) | PUCCRT 1DP disease control rating, HV activity (Puccinia triticina; HV application at 100 ppm, 1 Day Protectant, wheat brown rust) | PUCCRT 3DC disease control rating, HV activity (Puccinia triticina; HV application at 100 ppm, 3 Day Curative, wheat brown rust) | PUCCRT 1DP disease control rating, LV activity (Puccinia triticina; Low volume application at 125.1 g/H, 1 Day Protectant, wheat brown rust) | PUCCRT 3DC disease control rating, LV activity (Puccinia triticina; Low volume application at 125.1 g/H, 3 Day Curative, wheat brown rust) | ALTESO disease control, 1DP (Alternaria solani) | SEPTTR 1DP, LV activity at 125.1 g/H (% Control rating) (Zymoseptoria tritici; 1 Day Protectant) | SEPTTR 3DC, LV activity at 125.1 g/H (% Control rating) (Zymoseptoria tritici; 3 Day Curative) | PUCCRT 1DP, LV activity at 125.1 g/H (% Control rating) (Puccinia triticina; 1 Day Protectant) | PUCCRT 3DC, LV activity at 125.1 g/H (% Control rating) (Puccinia triticina; 3 Day Curative)
1 | CCCOC(CC)C(Oc1ccccc1)C(C)OC(=O)C(C)NC(=O)c1nccc(OC)c1OCOC(C)=O (centres unmarked) [Cmpd 446] | A (> 80) | A (> 80) | A (> 80) | A (> 80) | A (> 80) | A (> 80) | A (> 80) | A (> 80) | D |  |  |  | 
2 | COc1ccnc(C(=O)N[C@@H](C)C(=O)O[C@@H](C)[C@H](Oc2ccccc2)C(C)C)c1OCOC(C)=O [Cmpd 475] |  |  |  |  |  |  |  |  | B (≤ 80) | A (> 80) | A (> 80) | A (> 80) | A (> 80)
3 | CC[C@@H](CCOC)[C@@H](Oc1ccccc1)[C@H](C)OC(=O)[C@H](C)NC(=O)c1nccc(OC)c1OCOC(C)=O [Cmpd 476] |  |  |  |  |  |  |  |  | B (≤ 80) | A (> 80) | A (> 80) | A (> 80) | A (> 80)
4 | CCC(CC)[C@@H](Oc1ccccc1)[C@H](C)OC(=O)[C@H](C)NC(=O)c1nccc(OC)c1OCOC(C)=O [Cmpd 477] |  |  |  |  |  |  |  |  | B (≤ 80) | A (> 80) | A (> 80) | A (> 80) | A (> 80)
5 | COc1ccnc(C(=O)N[C@@H](C)C(=O)O[C@@H](C)[C@H](Oc2ccccc2)C(C)C)c1OC(C)=O [Cmpd 478] |  |  |  |  |  |  |  |  | B (≤ 80) | A (> 80) | A (> 80) | A (> 80) | A (> 80)
6 | CCC(CC)[C@@H](Oc1ccccc1)[C@H](C)OC(=O)[C@H](C)NC(=O)c1nccc(OC)c1OC(C)=O [Cmpd 479] |  |  |  |  |  |  |  |  | B (≤ 80) | A (> 80) | A (> 80) | A (> 80) | A (> 80)
7 | CC[C@@H](CCOC)[C@@H](Oc1ccccc1)[C@H](C)OC(=O)[C@H](C)NC(=O)c1nccc(OC)c1OC(C)=O [Cmpd 482] |  |  |  |  |  |  |  |  | B (≤ 80) | A (> 80) | A (> 80) | A (> 80) | A (> 80)
8 | COc1ccnc(C(=O)N[C@@H](C)C(=O)O[C@@H](C)[C@H](Oc2ccccc2)c2ccccc2)c1OCOC(C)=O [Cmpd 500] |  |  |  |  |  |  |  |  | B (≤ 80) | A (> 80) | A (> 80) | A (> 80) | A (> 80)
9 | COc1ccnc(C(=O)N[C@@H](C)C(=O)O[C@H](C)[C@@H](Oc2ccccc2)c2ccccc2)c1OCOC(C)=O [Cmpd 547] |  |  |  |  |  |  |  |  | B (≤ 80) | A (> 80) | A (> 80) | A (> 80) | A (> 80)
10 | COc1ccnc(C(=O)N[C@H](C)C(=O)O[C@H](C)[C@@H](Oc2ccccc2)C(C)C)c1OCOC(C)=O [Cmpd 548] |  |  |  |  |  |  |  |  | B (≤ 80) | B (≤ 80) | B (≤ 80) | D | D
11 | COc1ccnc(C(=O)N[C@H](C)C(=O)O[C@H](C)[C@@H](Oc2ccccc2)c2ccccc2)c1OCOC(C)=O [Cmpd 549] |  |  |  |  |  |  |  |  | B (≤ 80) | B (≤ 80) | B (≤ 80) | D | D
12 | COc1ccnc(C(=O)N[C@@H](C)C(=O)O[C@@H](C)[C@@H](Oc2ccccc2)C(C)C)c1OCOC(C)=O [Cmpd 552] |  |  |  |  |  |  |  |  | B (≤ 80) | A (> 80) | A (> 80) | A (> 80) | A (> 80)
13 | COc1ccnc(C(=O)N[C@@H](C)C(=O)O[C@@H](C)[C@H](Oc2ccccc2)C2CCCC2)c1OCOC(C)=O [Cmpd 556] |  |  |  |  |  |  |  |  | B (≤ 80) | A (> 80) | A (> 80) | A (> 80) | A (> 80)
14 | COc1ccnc(C(=O)N[C@@H](C)C(=O)O[C@@H](C)[C@@H](CC(C)C)Oc2ccccc2)c1OCOC(C)=O [Cmpd 557] |  |  |  |  |  |  |  |  | B (≤ 80) | A (> 80) | A (> 80) | A (> 80) | A (> 80)
15 | COc1ccnc(C(=O)N[C@H](C)C(=O)O[C@@H](C)[C@H](Oc2ccccc2)C(C)C)c1OCOC(C)=O [Cmpd 558] |  |  |  |  |  |  |  |  | B (≤ 80) | B (≤ 80) | B (≤ 80) | D | B (≤ 80)
16 | COc1ccnc(C(=O)N[C@H](C)C(=O)O[C@@H](C)[C@@H](Oc2ccccc2)C(C)C)c1OCOC(C)=O [Cmpd 559] |  |  |  |  |  |  |  |  | B (≤ 80) | B (≤ 80) | A (> 80) | D | D
17 | COc1ccnc(C(=O)N[C@H](C)C(=O)O[C@H](C)[C@H](Oc2ccccc2)C(C)C)c1OCOC(C)=O [Cmpd 560] |  |  |  |  |  |  |  |  | B (≤ 80) | B (≤ 80) | B (≤ 80) | D | D
